# Patent publication US4075332A (priority 1976, dated 1978)
# Read-outs that look alike come from different tables or passages of the source.
# Legend:
# Root-knot nematode = conditions: in vivo
# bovine cholinesterase = bovine cholinesterase (Bos taurus, UniProt P23795); assay: biochemical; type: biochemical
# [1] = Thermal stability of products (GC / nmr observation); type: physicochemical; conditions: for thermal stability: general statement
# From the text: The corresponding primary alkyl derivatives such as the S'-n-propyl compound are stable under similar conditions.
# The ethyl sulfinylmethyl product was unstable at room temperature.
# Southern army worm [2] = conditions: in vivo; for Southern Army Worm Mortality, %: southern armyworm
# Mexican bean beetle = assay: whole plant or invertebrate; conditions: Epilachna varivestis; for mortality at 100 ppm / mortality at 50 ppm: read-out: Mexican Bean Beetle Larvae Mortality, %
# House fly = assay: whole plant or invertebrate; conditions: Musca domestica, 48 h; for mortality at 20 ppm: read-out: House Fly Spray Mortality, % (at 20 ppm); for mortality at 250 ppm: read-out: Mortality, % - House Flies
# Corn rootworm larvae [3] = assay: whole plant or invertebrate; conditions: soil, 120 h, read-out: Corn Rootworm Larvae Mortality, % (at 2.5 ppm)
# Corn earworm = assay: Field control of corn earworm (Example 27); type: in vivo; conditions: Table XV; 1 lbs/acre; untreated check 45
# From the text: Spring Gold sween corn was planted on March 21. Each treatment was made on a 48 ft. row and was replicated three times. Ratings represent the total counts from all three replicates. Except for insecticide treatment the plots were managed according to recommended farming practice for the area. Application of the experimental compositions at the 1 lb. active ingredient per acre were made and readings were made to determine the number of infested corn ears.
# [4] = tested on: powdery mildew fungus (Erysiphe Polygoni); assay: Bean Powdery Mildew eradicant test; type: in vivo; conditions: Table III; 200 ppm
# [5] = tested on: bean rust fungus (Uromyces Phaseoli); assay: Bean Rust eradicant test; type: in vivo; conditions: Table III; 200 ppm
# Method: In these tests, the experimental compounds were tested in aqueous emulsions, prepared in the same manner as was previously described above with respect to the insecticidal and miticidal tests.
# Pinto bean plants with fully expanded primary leaves were inoculated with spores of the bean rust fungus (Uromyces Phaseoli) and incubated for 24 hours. The test were then carried out as described above for Bean Powdery Mildew.
# [6] = tested on: bean rust fungus (Uromyces Phaseoli); assay: Bean Rust systemic eradicant test; type: in vivo; conditions: Table III; 200 ppm
# Method: Pinto bean plants were inoculated 24 hours prior to use as above and the soil in the pot was then treated with 20 ml. of an emulsion of the test chemical. The rest of the test and the evaluation were then carried out an above for Bean Powdery Mildew.
# Sclerotium = Sclerotium soil fungicide test; type: in vivo; conditions: Table III; 100 lb/acre
# Method: Sterilized soil was inoculated with Solerotium and placed into a 4-ounce "Dixie cup", and drenched with 20 ml. of an emulsion of the test chemical. The cup was then incubated for 2 days at 70° F. Thereafter, the amount of mycelial growth on the soil surface was rated and the control by the chemical estimated accordingly.
# Corn rootworm larvae [7] = conditions: in vivo, 120 h
# Spider mites [8] = assay: Mite, Systemic; type: in vivo, two-spotted mite; conditions: Tetranychus urticae, read-out: Mortality, % - Spider Mites Systemic
# Method: (§1) In the insecticidal and miticidal tests, the experimental compounds were tested as aqueous emulsions. These emulsions were prepared by dissolving the compound in acetone and dispersing it in distilled water with Triton X-100, an alkylaryl polyether alcohol derived by the reaction of i-octylphenol with ethylene oxide, to give spray emulsions containing the desired concentrations of the compound. These emulsions were then used in standard laboratory tests described below.
# Mite, Systemic: Bean plants infested with the two-spotted mites were treated by applying 20 ml. of the formulated test chemical to the soil.
# Bean aphids [9] = assay: Aphid, Systemic; type: in vivo, bean aphid; conditions: Aphis fabae, 48 h, read-out: Mortality, % - Bean Aphids Systemic
# Method: as §1
# Aphid, Systemic: Nasturtium plants infested with the bean aphid were treated by applying 20 ml. of the formulated test chemical to the soil. The degree of aphid control was rated after 2 days.
# Lone Star Ticks = assay: Animal systemic insecticide test in guinea pigs, lone star tick nymphs; type: in vivo, lone star tick (host: guinea pig); conditions: Cavia porcellus, 24 h, Table XI, read-out: Lowest Dosage (mg/kg) Causing Complete Kill of Nymphs of Lone Star Ticks
# Method: (§2) The experimental compounds, formulated as 5% solutions in Tween 20, were administered orally and subcutaneously to guonea pigs which have been artificially infested with nymphs of the lone star tick at 48 hours before treatment, larvae of the secondary screw worm and of the black blow fly at 24 hours before treatment. Mortality was observed 24 hours after the treatment. For the details of the techniques, reference is made to the publications of R. O. Drummond in the Journal of Economic Entomology, particularly in Vol. 60, pages 733-737 in 1967.
# Black Blow Flies = assay: Animal systemic insecticide test in guinea pigs, black blow fly larvae; type: in vivo, black blow fly (host: guinea pig); conditions: Calliphoridae, in Cavia porcellus, 24 h, Table XI, read-out: Lowest Dosage (mg/kg) Causing Complete Kill of Larvae of Black Blow Flies
# Method: as §2
# Secondary Screw Worms = assay: Animal systemic insecticide test in guinea pigs, secondary screw worm larvae; type: in vivo, secondary screw worm (host: guinea pig); conditions: Cavia porcellus, 24 h, Table XI, read-out: Lowest Dosage (mg/kg) Causing Complete Kill of Larvae of Secondary Screw Worms
# Method: as §2
# Spider mites [10] = conditions: two-spotted spider mite, in vivo, 48 h
# Bean aphids [11] = conditions: bean aphid, in vivo, 48 h
# in vivo = conditions: rat, po
# Southern army worm [12] = assay: whole plant or invertebrate; conditions: Spodoptera eridania; for mortality at 250 ppm: read-out: Mortality, % - Southern ArmyWorm; for mortality at 50 ppm / mortality at 100 ppm: read-out: Mortality of Southern Armyworm, %
# Spider mites [13] = assay: whole plant or invertebrate; conditions: Tetranychus urticae, 48 h, read-out: Mortality, % - Spider Mites Contact
# Bean aphids [14] = assay: whole plant or invertebrate; conditions: Aphis fabae, 48 h, read-out: Mortality, % - Bean Aphids Contact
# [15] = read-out: Mortality, % - Mexican Bean Beetle
# [16] = read-out: Mortality, % - Mexican Bean Beetles
# Chain of bovine cholinesterase (P23795-2 with tags, fused parts or gaps limits assumed): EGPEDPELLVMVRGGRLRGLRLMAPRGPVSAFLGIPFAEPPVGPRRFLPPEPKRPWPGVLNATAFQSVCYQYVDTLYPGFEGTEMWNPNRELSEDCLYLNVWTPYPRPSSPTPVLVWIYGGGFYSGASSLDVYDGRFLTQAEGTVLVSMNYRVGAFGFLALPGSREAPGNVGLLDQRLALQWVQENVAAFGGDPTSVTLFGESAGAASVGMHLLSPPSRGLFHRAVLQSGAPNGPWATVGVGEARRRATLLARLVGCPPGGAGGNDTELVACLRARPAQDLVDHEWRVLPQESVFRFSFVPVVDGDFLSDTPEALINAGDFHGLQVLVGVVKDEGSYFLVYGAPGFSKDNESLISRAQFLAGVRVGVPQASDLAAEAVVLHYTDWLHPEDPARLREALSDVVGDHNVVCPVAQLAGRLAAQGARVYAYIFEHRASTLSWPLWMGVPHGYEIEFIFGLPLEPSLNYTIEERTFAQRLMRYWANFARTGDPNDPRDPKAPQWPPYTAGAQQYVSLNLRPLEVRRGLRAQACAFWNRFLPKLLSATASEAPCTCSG
compound,measurement,setting,value
"CCCSP(=O)(OCC)SCSCC (stereo not shown) [Example 11, O-Ethyl S-1-Propyl S'-Ethylthiomethyl Dithiophosphate]","Nematodes Rate, Control after 1-4 weeks (at 25#/acre)",Root-knot nematode,100
same,IC50,bovine cholinesterase,2.7 µM
same,stability (nmr),[1]; 60° C,slowly decomposing
same,"Southern Army Worm Mortality, %",Southern army worm [2],100%
same,mortality at 100 ppm,Mexican bean beetle,100%
same,mortality at 20 ppm,House fly,100%
same,mortality at 2.5 ppm,Corn rootworm larvae [3],100%
CCCSP(=O)(OCC)SCC(C)SC (stereo not shown) [drawing 57],Number of Infested Corn Ears (150 Ears Sampled),Corn earworm,4
"CCOP(=O)(SCC)SCC(C)SCC (stereo not shown) [Example 29, O,S-Diethyl S'-2-Ethylthiopropyl Dithiophosphate]","Pest Control, % - Nematode Control (25 lb/acre)",Root-knot nematode,20%
same,"Control of Foliar Fungi, % - Bean Mildew Eradicant",[4],0%
same,"Control of Foliar Fungi, % - Bean Rust Eradicant",[5],0%
same,"Control of Foliar Fungi, % - Bean Rust Systemic Eradicant",[6],0%
same,"Control of Sclerotium, %",Sclerotium,0%
same,"Pest Control, % - Corn Rootworm (0.25 ppm)",Corn rootworm larvae [7],20%
"CCCSP(=O)(OCC)SCSc1ccc(Cl)cc1 (stereo not shown) [Example 31, O-Ethyl S-1-Propyl S'-4-Chlorophenyllthiomethyl Dithiophosphate]","Nematodes Rate, Control after 1-4 weeks (at 25#/acre)",Root-knot nematode,100
same,IC50,bovine cholinesterase,0.0041 µM
same,"Southern Army Worm Mortality, %",Southern army worm [2],100%
same,mortality at 100 ppm,Mexican bean beetle,100%
same,mortality at 20 ppm,House fly,100%
same,mortality at 2.5 ppm,Corn rootworm larvae [3],0%
"CCOP(=S)(OCC)SCSCC [Thimet, reference compound]","Nematodes Rate, Control after 1-4 weeks (at 25#/acre)",Root-knot nematode,0
same,IC50,bovine cholinesterase,31 µM
same,"Southern Army Worm Mortality, %",Southern army worm [2],0%
same,mortality at 100 ppm,Mexican bean beetle,90%
same,mortality at 20 ppm,House fly,90%
same,mortality at 2.5 ppm,Corn rootworm larvae [3],100%
"CCCSP(=O)(OCC)SCCSC (stereo not shown) [Example 1, O-Ethyl S-1-Propyl S'-2-Methylthioethyl Dithiophosphate]",mortality at 250 ppm,Spider mites [8],100%
same,mortality at 250 ppm,Bean aphids [9],95%
same,"Nematode Control,% at 25 lb/acre",Root-knot nematode,90%
same,minimal effective dose,Lone Star Ticks; oral,50 mg/kg
same,minimal effective dose,"Lone Star Ticks; sc, subcutaneous",50 mg/kg
same,minimal effective dose,Black Blow Flies; oral,50 mg/kg
same,minimal effective dose,"Black Blow Flies; sc, subcutaneous",50 mg/kg
same,minimal effective dose,Secondary Screw Worms; oral,50 mg/kg
same,minimal effective dose,"Secondary Screw Worms; sc, subcutaneous",50 mg/kg
same,"Mortality, % - Southern ArmyWorm",Southern army worm [2],100%
same,"Mortality, % - Spider Mites Contact",Spider mites [10],100%
same,"Mortality, % - Bean Aphids Contact",Bean aphids [11],100%
same,LD50 at 336 h,in vivo,46 mg/kg
same,mortality at 250 ppm,Southern army worm [12],100%
same,mortality at 250 ppm,Mexican bean beetle; [15],100%
same,mortality at 250 ppm,Mexican bean beetle; [16],100%
same,mortality at 250 ppm,Spider mites [13],100%
same,mortality at 250 ppm,Bean aphids [14],100%
same,mortality at 250 ppm,House fly,100%
"CCCSP(=O)(OCC)SCC[S+](C)[O-] (stereo not shown) [Example 6, O-Ethyl S-1-Propyl S'-2-Methylsulfinylethyl Dithiophosphate]",mortality at 250 ppm,Spider mites [8],100%
same,mortality at 250 ppm,Bean aphids [9],100%
same,"Nematode Control,% at 25 lb/acre",Root-knot nematode,100%
same,minimal effective dose,Lone Star Ticks; oral,50 mg/kg
same,minimal effective dose,"Lone Star Ticks; sc, subcutaneous",50 mg/kg
same,minimal effective dose,Black Blow Flies; oral,50 mg/kg
same,minimal effective dose,"Black Blow Flies; sc, subcutaneous",50 mg/kg
same,minimal effective dose,Secondary Screw Worms; oral,100 mg/kg
same,minimal effective dose,"Secondary Screw Worms; sc, subcutaneous",50 mg/kg
same,LD50 at 336 h,in vivo,46 mg/kg
same,mortality at 250 ppm,Southern army worm [12],100%
same,mortality at 250 ppm,Mexican bean beetle; [15],100%
same,mortality at 250 ppm,Spider mites [13],100%
same,mortality at 250 ppm,Bean aphids [14],100%
"CCCSP(=O)(OCC)SCCSc1ccccc1 (stereo not shown) [Example 4, O-Ethyl S-1-Propyl S-2-Phenylthioethyl Dithiophosphate]",mortality at 250 ppm,Spider mites [8],40%
same,mortality at 250 ppm,Bean aphids [9],20%
same,minimal effective dose,Lone Star Ticks; oral,> 100 mg/kg
same,minimal effective dose,"Lone Star Ticks; sc, subcutaneous",> 100 mg/kg
same,minimal effective dose,Black Blow Flies; oral,> 100 mg/kg
same,minimal effective dose,"Black Blow Flies; sc, subcutaneous",> 100 mg/kg
same,minimal effective dose,Secondary Screw Worms; oral,> 100 mg/kg
same,minimal effective dose,"Secondary Screw Worms; sc, subcutaneous",> 100 mg/kg
same,mortality at 250 ppm,Southern army worm [12],100%
same,mortality at 250 ppm,Mexican bean beetle; [16],100%
same,mortality at 250 ppm,Spider mites [13],100%
same,mortality at 250 ppm,Bean aphids [14],95%
same,mortality at 250 ppm,House fly,95%
CCCSP(=O)(OCC)SCC[S+](C)[O-] (stereo not shown) [drawing 56],Number of Infested Corn Ears (150 Ears Sampled),Corn earworm,0
CCCSP(=O)(OCC)SCCSC (stereo not shown) [drawing 55],Number of Infested Corn Ears (150 Ears Sampled),Corn earworm,2
"CCCSP(=O)(OCC)SCCSCC (stereo not shown) [Example 30, O-Ethyl 1-Propyl S'-2-Ethylthioethyl Dithiophosphate]",mortality at 250 ppm,Spider mites [8],100%
same,mortality at 250 ppm,Bean aphids [9],90%
same,"Nematodes Rate, Control after 1-4 weeks (at 25#/acre)",Root-knot nematode,100
same,IC50,"bovine cholinesterase; read-out: Cholinesterase Inhibiting conc. LD50, Mole/Liter, 30 min",1.1 µM
same,"Southern Army Worm Mortality, %",Southern army worm [2],100%
same,LD50 at 336 h,in vivo,318 mg/kg
same,mortality at 50 ppm,Southern army worm [12],80%
same,mortality at 100 ppm,Southern army worm [12],100%
same,mortality at 250 ppm,Southern army worm [12],100%
same,mortality at 50 ppm,Mexican bean beetle,100%
same,mortality at 250 ppm,Mexican bean beetle; [16],100%
same,mortality at 250 ppm,Spider mites [13],100%
same,mortality at 250 ppm,Bean aphids [14],100%
same,mortality at 20 ppm,House fly,100%
same,mortality at 250 ppm,House fly,100%
same,mortality at 2.5 ppm,Corn rootworm larvae [3],20%
"CCOP(=S)(OCC)SCCSCC [Disyston, reference compound]","Nematodes Rate, Control after 1-4 weeks (at 25#/acre)",Root-knot nematode,0
same,IC50,bovine cholinesterase,380 µM
same,"Southern Army Worm Mortality, %",Southern army worm [2],0%
same,LD50 at 336 h,in vivo,25 mg/kg
same,mortality at 50 ppm,Mexican bean beetle,30%
same,mortality at 20 ppm,House fly,100%
same,mortality at 2.5 ppm,Corn rootworm larvae [3],0%
"CCOP(=O)(SCCSCC)SC(C)(C)C (stereo not shown) [Example 10, O-Ethyl S-t-Butyl S'-2-Ethylthioethyl Dithiophosphate]",thermal stability,[1],thermally highly unstable
same,thermal stability on gas chromatographic analysis,[1]; injector temperature of 200° C,decomposed to yield isobutylene
same,mortality at 50 ppm,Southern army worm [12],0%
same,mortality at 100 ppm,Southern army worm [12],0%
"CCOP(=O)(SCC(C)C)SC[S+]([O-])CC (stereo not shown) [ethylsulfinylmethyl ester, O-ethyl S-isobutyl S'-ethylsulfinylmethyl dithiophosphate]",thermal stability,[1],thermal instability
CCCSP(=O)(OCC)SC[S+]([O-])CC (stereo not shown) [ethyl sulfinylmethyl product],stability (nmr),[1]; room temperature,unstable
